Tests used:
[1] = tested on: radiation-induced lung injury mouse model; test: Mouse model of acute radiation-induced lung injury; type: in vivo; conditions: female C57BL/6 mice, 22.5 Gy whole lung irradiation, 30 mg/kg q.d, 3 weeks after modeling
Experimental: 18 female C57BL/6 mice were randomly divided into 3 groups, namely a blank control group, a group treated with irradiation alone, and a group intervened with irradiation+drug YZ001052 (30 mg/kg q.d), with 6 mice in each group.
The mice were anesthetized by intraperitoneal injection of 1% pentobarbital sodium, and were subjected to a single whole lung irradiation at 22.5 Gy, with 220 KV of X-rays by using a small animal radiation research platform (SARRP). After the irradiation was completed, the mice were fed routinely.
3 weeks after modeling, the mice were anesthetized and dissected. The lung tissue was exposed, the left lung was ligated, an open tracheotomy was performed, the lung was lavaged with cold PBS, and the bronchoalveolar lavage fluid (BALF) was collected and subjected to refrigerated centrifugation at 4° C.
The supernatant was collected, and detected for the content of the inflammatory factor TNF-α by ELISA.
The cell pellet of the alveolar lavage fluid was resuspended in 200 μL PBS and used for counting of white blood cells (WBCs).

[2] = tested on: DSS-induced mouse inflammatory bowel disease model; test: DSS-induced mouse inflammatory bowel disease model; type: in vivo; conditions: female C57BL/6 mice, 5% DSS, 50 mg/kg once a day, day 8, compared with model group, FIG. 3
Experimental: Objective of Experiment: to test the immunosuppressive activity of YZ001052 in a DSS-induced mouse inflammatory bowel disease model. PF-06651600 was used as a positive control compound.
50 g of DSS was weighed, added with 1,000 mL of sterile water, formulated into a 5% DSS solution, and filtered with a 0.22 μm filter membrane. From day 0, the blank group was given drinking water without DSS, and the other experimental groups were given drinking water containing 5% DSS. All mice were sacrificed on day 8. After the experiment was ended, the colorectum was collected, and photographed, and its length was measured for statistical analysis.

[3] = tested on: collagen-induced mouse arthritis model; test: Collagen-induced mouse arthritis model (mCIA); type: in vivo, DBA/1J mice; conditions: female DBA/1J CIA mice, 50 mg/kg once a day, FIG. 2
Text: Objective of Experiment: to test the immunosuppressive activity of YZ001052 in a mCIA model. PF-06651600 was used as a positive control compound.
Complete and incomplete Freund's adjuvants were mixed with a chicken type II collagen solution in equal proportions to form an emulsifier. Except for the blank control group, on Day 0, a mixture of a complete Freund's adjuvant and the chicken type II collagen solution was subcutaneously injected into the tail roots and thigh roots of the mice, with 100 μL being injected subcutaneously at the tail root of each mouse; and 50 μL being injected subcutaneously at each of the two thigh roots of each mouse (primary immunization). On day 21, the mice were subcutaneously injected with 200 μL of a mixture of an incomplete Freund's adjuvant and the chicken type II collagen solution as a booster injection (second immunization). […] Measurement of paw thickness: the thicknesses of the left and right hind feet of the mice were measured with a vernier caliper to serve as the paw swelling degree and recorded, and the detection frequency was once every 3 days.

SRBC mouse model = test: SRBC-induced delayed type hypersensitivity (DTH) in mice; type: in vivo; conditions: male Balb/c mice, 100 mg/kg by gavage once a day, day 0 to day 6, FIG. 1
Experimental: PF-06651600 was used as a positive control compound.
Drug preparation: the compound was weighed and added with a 0.5% CMC-Na solution to prepare a drug suspension (with an administration dose of 10 mg/mL).
Induction of delayed type hypersensitivity (DTH) and administration: 30 male Balb/c mice were weighed and randomly divided into 6 groups according to body weight, with 5 mice in each group. The experimental period lasted for 7 days in total. On day 0, the mice were subcutaneously injected with sheep red blood cells (SRBCs) for sensitization. From day 0, the mice were administrated with 100 mg/kg by gavage (once a day) until day 6. On day 6, SRBCs were injected into the right hind foot pad of the mice for excitation. On day 7 of the experiment, measurements were conducted, photographs were taken, and the experiment was ended.
Pharmacodynamic detection indicators of disease models: the detection and observation indicators were the degree of redness and swelling and detected thicknesses of paw pads of the mice in the model group as induced by SRBC. The thickness of the right paw was measured as the baseline before the SRBC injection excitation on day 6. At the end of the experiment […], the thickness of the right paw was measured again, and the difference in thickness of the paw before and after the second injection was calculated.
Statistical processing: experimental data was expressed as mean±standard deviation (Mean±SD). All data was statistically analyzed using a T-test. P<0.05 was considered to be statistically different.

C=CC(=O)N1CCc2c(c(-c3ccnc4[nH]ccc34)nn2C)C1 [YZ001052]
TNF-α level in the alveolar lavage fluid ([1]; ELISA, FIG. 4): good inhibitory effect
number of white blood cells (inflammatory cell infiltrates) in the alveolar lavage fluid ([1]; FIG. 5): significantly reduce
length of the colorectum [2]: significantly increased
swelling of the paws [3]: improved to varying degrees
arthritis scores ([3]; compared to the model group): significantly reduced
immunosuppressive effect on SRBC-induced delayed type hypersensitivity (right paw thickness) (SRBC mouse model): significant immunosuppressive effects

— patent publication US20260158031A1, “AROMATIC HETEROCYCLIC COMPOUND, PHARMACEUTICAL COMPOSITION CONTAINING THE SAME, AND USE THEREOF” (HANG ZHOU YUHONG PHARMATECH CO., LTD., priority 2021, published 2026)
